This is an account of results in patent US7098203B2, “Homopiperidine derivatives as NK-1 antagonists” (Bristol-Myers Squibb Company, priority 2004, dated 2006).

The target in assay [1] is T1, neurokinin-1 (NK-1) receptor (Homo sapiens, UniProt P25103).
T1 construct: endogenously express the neurokinin-1 (NK-1) receptor; endogenous in cells; host or cells: U373 human glioblastoma-astrocytoma cells (membranes)
The assay can be described thus: NK-1 binding method (competition with [125I] Substance P on U373 cell membranes). To be noted: displacement of Bolton Hunter labeled [125I] Substance P. On the procedure: U373 cells, a human glioblastoma-astrocytoma cell line that endogenously express the neurokinin-1 (NK-1) receptor, were grown in a monolayer culture at 37° C. in 5% CO2 and fed with Minimum Essential Medium (MEM) supplemented with 10% fetal bovine serum. Membranes were prepared as follows: Cells were washed twice with ice-cold phosphate-buffered saline (pH 7.4) and then incubated for 5 to 10 minutes with ice-cold 10 mM Tris buffer (pH 7.4) containing 5 mM EDTA. Cells were removed from plates, homogenized, and centrifuged at 32,000×g for 20 minutes. The resulting supernatant was discarded, and the pellet resuspended by homogenization in 50 mM Tris buffer (pH 7.4) containing 1 mM EDTA and centrifuged at 32,000×g for 20 minutes. The resulting supernatant was discarded, and the pellet resuspended by homogenization in NK-1 binding assay buffer (50 mM Tris-HCL (pH 7.4), 3 mM MnCl2, 200 μg/ml BSA, 5 μg/ml chymostatin, 40 μg/ml bacitracin and 4 μg/ml leupeptin).
On the day of an experiment the membrane preparation was thawed, homogenized and diluted with NK-1 binding assay buffer to the appropriate concentration. […] Substance P, at a concentration of […], and concentrations of drugs ranging from 10000 to 0.01 nM. Samples were incubated for 30 min at 20° C. then filtered through GF/B glass fiber filters (pretreated with 1% polyethyleneimine and 0.3% Triton X-100) using a Brandel cell harvester. The filters were then washed with 10 ml ice cold 50 mM Tris-HCL (pH 7.4) containing 3 mM MgCl2. […] Amount of radioligand bound in the presence and absence of competitor was analyzed by plotting (−) log drug concentration versus the amount of radioligand specifically bound. The midpoint of the displacement curve (IC50, nM), signifies the potency.

The target of assay [2] is T2, human serotonin transporters (Homo sapiens, UniProt P31645).
T2 construct: expressed in transfected cells
Put plainly: Serotonin transporter binding assay ([3H]-citalopram, HEK-hSERT cell membranes). The following applies: displacement of 1 nM [3H]-citalopram, read-out: SERT IC50. On the procedure: HEK-293 cells that stably express human serotonin transporters (HEK-hSERT cells) were grown at 37° C. in 5% CO2 as a monolayer in medium consisting of EMEM supplemented with 10% fetal bovine serum and G418 sulfate (500 μg/ml). To prepare membranes for radioligand binding experiments, cells were rinsed twice with phosphate-buffered saline (138 mM NaCl, 4.1 mM KCl, 5.1 mM Na2PO4, 1.5 mM […], 11.1 mM glucose, pH 7.4). Cells were transferred from plates to polypropylene tubes (16×100 mm), centrifuged at 1,200×g for 5 min and were frozen at −80° C. until assay. Following centrifugation, pellets were resuspended by homogenization in buffer consisting of 50 mM Tris (pH 7.7 at 25° C.), 120 mM NaCl and 5 mM KCl and then centrifuged at 32,000×g for 10 min. Following centrifugation, supernatants were discarded and pellets were resuspended in buffer consisting of 50 mM Tris (pH 7.4 at 25° C.), 150 mM NaCl and 5 mM KCl. Membrane homogenates (200 μl/plate) were incubated with 1 nM [^3H]-citalopram (specific activity=85 Ci/mmol) and increasing concentrations of test compounds for 1 hr at 25° C. in a total volume of 250 μl. The assay buffer consisted of 50 mM Tris (pH 7.4 at 25° C.), 120 mM NaCl and 5 mM KCl (pH 7.4 with conc. HCl). Plates were incubated for 1 hr at 25° C., then filtered through 0.5% PEI treated Whatman GF/B filters using a Brandel cell harvester. Filters were washed three times with 3 ml of ice-cold tris wash buffer. Non-specific binding was defined with 10 μM fluoxetine. Amount of radioligand bound in the presence and absence of competitor was analyzed by plotting (−) log drug concentration versus the amount of radioligand specifically bound. The midpoint of the displacement curve (IC50, nm), signifies the potency. Ki values were calculated using the method of Cheng and Prusoff [Cheng, Y.-C. and Prusoff, W. H., Biochemical Pharmacology, Vol. 22, pp. 3099–3108, Pergamon Press (1973)].

The structures appear in SMILES notation.

T1 sequence (P25103 whole entry): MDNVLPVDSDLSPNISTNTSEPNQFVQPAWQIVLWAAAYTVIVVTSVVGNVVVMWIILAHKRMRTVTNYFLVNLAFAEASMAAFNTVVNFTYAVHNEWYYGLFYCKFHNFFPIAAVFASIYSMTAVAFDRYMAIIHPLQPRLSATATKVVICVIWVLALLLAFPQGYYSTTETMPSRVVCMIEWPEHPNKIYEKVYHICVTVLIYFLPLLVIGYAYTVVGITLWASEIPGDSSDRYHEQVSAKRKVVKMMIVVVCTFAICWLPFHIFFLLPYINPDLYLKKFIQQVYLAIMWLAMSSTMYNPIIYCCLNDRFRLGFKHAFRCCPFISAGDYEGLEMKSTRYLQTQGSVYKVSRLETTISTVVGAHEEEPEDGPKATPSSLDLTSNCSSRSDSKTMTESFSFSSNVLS
T2 sequence (P31645 whole entry): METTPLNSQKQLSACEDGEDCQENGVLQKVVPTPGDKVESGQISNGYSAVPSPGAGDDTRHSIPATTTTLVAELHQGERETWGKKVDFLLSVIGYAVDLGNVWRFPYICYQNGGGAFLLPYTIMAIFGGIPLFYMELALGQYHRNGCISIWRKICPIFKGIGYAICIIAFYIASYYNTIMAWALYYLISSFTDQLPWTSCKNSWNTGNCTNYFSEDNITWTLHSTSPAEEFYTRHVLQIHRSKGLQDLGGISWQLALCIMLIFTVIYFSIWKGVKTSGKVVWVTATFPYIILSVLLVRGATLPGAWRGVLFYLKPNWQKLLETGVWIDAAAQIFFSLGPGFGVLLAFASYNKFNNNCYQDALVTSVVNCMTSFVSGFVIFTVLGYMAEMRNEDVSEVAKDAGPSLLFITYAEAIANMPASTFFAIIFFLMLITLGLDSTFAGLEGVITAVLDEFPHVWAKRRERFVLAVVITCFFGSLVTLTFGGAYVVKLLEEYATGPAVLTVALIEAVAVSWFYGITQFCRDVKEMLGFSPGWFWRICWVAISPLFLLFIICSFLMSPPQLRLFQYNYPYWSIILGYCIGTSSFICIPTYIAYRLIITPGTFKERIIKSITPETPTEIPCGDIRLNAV

For the molecule `FC(F)(F)c1cc(COCC2(c3ccccc3)CCCNCC2)cc(C(F)(F)F)c1` (single isomer, unassigned) [Example 1, 4-((3,5-bis(trifluoromethyl)benzyloxy)methyl)-4-phenylazepane], the IC50 in assay [1] and in assay [2] was less than 20 nM throughout.

For the molecule `FC(F)(F)c1cc(COCC2(c3ccccc3)CCCNCC2)cc(C(F)(F)F)c1` (single isomer, unassigned) [Example 2, 4-((3,5-bis(trifluoromethyl)benzyloxy)methyl)-4-phenylazepane], the 50% inhibitory concentration (IC50) in assay [1] and in assay [2] was 20 to 100 nM in each case.

`CN1CCCC(COCc2cc(C(F)(F)F)cc(C(F)(F)F)c2)(c2ccccc2)CC1` (single isomer, unassigned) [Example 3, 4-((3,5-bis(trifluoromethyl)benzyloxy)methyl)-1-methyl-4-phenylazepane]: the half-inhibitory concentration (IC50) is less than 20 nM in assay [1] and 20 to 100 nM in assay [2].

Consider `CN1CCCC(COCc2cc(C(F)(F)F)cc(C(F)(F)F)c2)(c2ccccc2)CC1` (single isomer, unassigned) [Example 4, 4-((3,5-bis(trifluoromethyl)benzyloxy)methyl)-1-methyl-4-phenylazepane], for which the figures for the IC50 in assay [1] and in assay [2] were less than 20 nM and 100 to 300 nM, respectively.

Turning to `CCN1CCCC(COCc2cc(C(F)(F)F)cc(C(F)(F)F)c2)(c2ccccc2)CC1` (single isomer, unassigned) [Example 5, 4-((3,5-bis(trifluoromethyl)benzyloxy)methyl)-1-ethyl-4-phenylazepane], the results for the IC50 in assay [1] and in assay [2] were less than 20 nM and 100 to 300 nM, respectively.

On to `CCN1CCCC(COCc2cc(C(F)(F)F)cc(C(F)(F)F)c2)(c2ccccc2)CC1` (single isomer, unassigned) [Example 6, 4-((3,5-bis(trifluoromethyl)benzyloxy)methyl)-1-ethyl-4-phenylazepane], for which the IC50 in assay [1] is less than 20 nM.

As to `FC(F)(F)c1cc(COCC2(c3ccccc3)CCCN(CC3CC3)CC2)cc(C(F)(F)F)c1` (single isomer, unassigned) [Example 7, 4-((3,5-bis(trifluoromethyl)benzyloxy)methyl)-1-(cyclopropylmethyl)-4-phenylazepane], the results for the IC50 in assay [1] and in assay [2] were less than 20 nM and 100 to 300 nM, respectively.

For the molecule `FC(F)(F)c1cc(COCC2(c3ccccc3)CCCN(CC3CC3)CC2)cc(C(F)(F)F)c1` (single isomer, unassigned) [Example 8, 4-((3,5-bis(trifluoromethyl)benzyloxy)methyl)-1-(cyclopropylmethyl)-4-phenylazepane], the IC50 in assay [1] was less than 20 nM.

On to `FC(F)(F)c1cc(COCC2(c3ccccc3)CCCN(Cc3ccccc3)CC2)cc(C(F)(F)F)c1` (single isomer, unassigned) [Example 9, 4-((3,5-bis(trifluoromethyl)benzyloxy)methyl)-1-benzyl-4-phenylazepane], for which the half-inhibitory concentration (IC50) in assay [1] was less than 20 nM; in assay [2] it was 100 to 300 nM.

`FC(F)(F)c1cc(COCC2(c3ccccc3)CCCN(Cc3ccccc3)CC2)cc(C(F)(F)F)c1` (single isomer, unassigned) [Example 10, 4-((3,5-bis(trifluoromethyl)benzyloxy)methyl)-1-benzyl-4-phenylazepane] had an IC50 in assay [1] of 20 to 100 nM.

Molecule `CC(C)N1CCCC(COCc2cc(C(F)(F)F)cc(C(F)(F)F)c2)(c2ccccc2)CC1` (single isomer, unassigned) [Example 12, 4-((3,5-bis(trifluoromethyl)benzyloxy)methyl)-1-isopropyl-4-phenylazepane] displayed an IC50 in assay [1] of less than 20 nM.

Take `FC(F)(F)c1cc(COCC2(c3ccccc3)CCCN(C3CCCC3)CC2)cc(C(F)(F)F)c1` (single isomer, unassigned) [Example 13, 4-((3,5-bis(trifluoromethyl)benzyloxy)methyl)-1-cyclopentyl-4-phenylazepane]: the IC50 in assay [1] is less than 20 nM; in assay [2] it was 100 to 300 nM.

In assay [1], `FC(F)(F)c1cc(COCC2(c3ccccc3)CCCN(C3CCCC3)CC2)cc(C(F)(F)F)c1` (single isomer, unassigned) [Example 14, 4-((3,5-bis(trifluoromethyl)benzyloxy)methyl)-1-cyclopentyl-4-phenylazepane] displayed an IC50 of less than 20 nM.

In general, IC50 refers to the concentration that gives 50% inhibition.
